# Data as given in ChEMBL document CHEMBL3232809, “Synthesis, antibiotic activity and structure-activity relationship study of some 3-enaminetetramic acids” (2014).
# Experiments:
# Format in all cases: functional
# [1] = tested on: Streptococcus pneumoniae; test: Antimicrobial activity against penicillin- and erythromycin-resistant Streptococcus pneumoniae in presence of 2.5% horse blood
# [2] = tested on: Escherichia coli; test: Antimicrobial activity against Escherichia coli 49
# [3] = tested on: Staphylococcus aureus; test: Antimicrobial activity against Staphylococcus aureus Oxford
# [4] = tested on: Haemophilus influenzae; test: Antimicrobial activity against Haemophilus influenzae ATCC 31517 MMSA
# [5] = tested on: Enterococcus faecium; test: Antimicrobial activity against vancomycin-resistant Enterococcus faecium
# [6] = tested on: Escherichia coli; test: Antimicrobial activity against Escherichia coli ATCC 25922
# [7] = tested on: Pseudomonas aeruginosa; test: Antimicrobial activity against Pseudomonas aeruginosa ATCC 27853
# [8] = tested on: Escherichia coli; test: Antimicrobial activity against Escherichia coli 50
# [9] = tested on: Streptococcus pneumoniae; test: Antimicrobial activity against penicillin- and erythromycin-resistant Streptococcus pneumoniae
# [10] = tested on: Enterococcus faecalis; test: Antimicrobial activity against vancomycin-susceptible Enterococcus faecalis ATCC 29212
# [11] = tested on: Staphylococcus aureus; test: Antimicrobial activity against vancomycin-susceptible Staphylococcus aureus ATCC 25923
# [12] = tested on: Haemophilus influenzae; test: Antimicrobial activity against LS2 Efflux knock-out Haemophilus influenzae
# [13] = tested on: Streptococcus pneumoniae; test: Antimicrobial activity against erythromycin-susceptible Streptococcus pneumoniae ATCC 49619
# [14] = tested on: Staphylococcus aureus; test: Antimicrobial activity against methicillin-resistant Staphylococcus aureus
# [15] = tested on: Staphylococcus aureus; test: Antimicrobial activity against methicillin-sensitive Staphylococcus aureus ATCC 13709
Structure (SMILES),MIC [1] [µg/mL],MIC [2] [µg/mL],MIC [3] [µg/mL],MIC [4] [µg/mL],MIC [5] [µg/mL],MIC [6] [µg/mL],MIC [7] [µg/mL],MIC [8] [µg/mL],MIC [9] [µg/mL],MIC [10] [µg/mL],MIC [11] [µg/mL],MIC [12] [µg/mL],MIC [13] [µg/mL],MIC [14] [µg/mL],MIC [15] [µg/mL]
CCOC(=O)[C@]12CO[C@H](C(C)(C)C)N1C(=O)/C(=C(/CC(F)(F)C(F)(F)C(F)(F)C(F)(F)C(F)(F)F)NCCCN1CCOCC1)C2=O,16,> 32,16,> 64,16,> 32,> 32,> 32,8,32,16,8,16,32,32
CCCC(=O)N1CC(=O)/C(=C(\CC23CC4CC(C)(CC(C)(C4)C2)C3)NCCCN2CCOCC2)C1=O,32,> 32,> 64,> 64,> 64,> 32,> 32,> 32,16,> 64,> 64,8,16,> 64,> 64
CCOC(=O)[C@]12CO[C@H](C(C)(C)C)N1C(=O)/C(=C(\C)Nc1ncc(Cl)cn1)C2=O,> 32,> 32,> 32,> 32,> 32,> 32,> 32,> 32,> 32,> 32,> 32,> 32,> 32,> 32,> 32
CCCCCCN1CC(=O)/C(=C(/NC2CCCCC2)C2CCCCC2)C1=O,64,> 32,> 64,> 64,> 64,> 32,> 32,> 32,2,> 64,> 64,> 64,2,> 64,> 64
CCCCC/C(NC(C)CCCN(CC)CC)=C1\C(=O)C(CCSC)N(C(=O)CC(C)CC(C)(C)C)C1=O (stereo not given),8,> 32,8,> 64,8,> 32,> 32,> 32,4,16,16,8,8,16,16
COC(=O)[C@@]12CO[C@@H](C(C)(C)C)N1C(=O)/C(=C(\C)NC13CC4CC(CC(C4)C1)C3)C2=O,> 64,> 32,> 64,> 64,> 64,> 32,> 32,> 32,> 64,> 64,> 64,16,> 64,> 64,> 64
CCCCCC/C(Nc1ccc(N2CCOCC2)cc1)=C1\C(=O)CNC1=O,> 32,> 32,> 32,> 32,> 32,> 32,> 32,> 32,> 32,> 32,> 32,> 32,> 32,> 32,> 32
CCCC(=O)N1CC(=O)/C(=C(\CC23CC4CC(CC(C4)C2)C3)NCCCN2CCOCC2)C1=O,64,> 32,> 64,> 64,> 64,> 32,> 32,> 32,64,> 64,> 64,16,64,> 64,> 64
CCCCCCCCCCCCC/C(NCCCNC(=O)COCC(=O)O)=C1\C(=O)CN(CCCCCC)C1=O,64,> 32,> 64,> 64,16,> 32,> 32,> 32,16,16,> 64,> 64,8,> 64,> 64
CCOC(=O)[C@]12CO[C@H](C(C)(C)C)N1C(=O)/C(=C(\C)NCc1cccc(CN3CCC(C)CC3)c1)C2=O,> 32,> 32,> 32,> 32,> 32,> 32,> 32,> 32,> 32,> 32,> 32,> 32,> 32,> 32,> 32
CCCCCCCCCCC/C(NCCCOC(C)C)=C1\C(=O)CNC1=O,32,> 32,16,> 64,8,> 32,> 32,> 32,4,16,> 64,2,4,64,16
CCCCCCCCCCC/C(NCCCOC(C)C)=C1/C(=O)N[C@@H](CCCC(=O)NCCCOC(C)C)C1=O,> 64,> 32,> 64,> 64,> 64,> 32,> 32,> 32,16,> 64,> 64,8,> 64,> 64,> 64
COC(=O)[C@@]12CO[C@@H](C(C)(C)C)N1C(=O)/C(=C(\C)Nc1ccccc1)C2=O,> 32,> 32,> 32,> 32,> 32,> 32,> 32,> 32,> 32,> 32,> 32,> 32,> 32,> 32,> 32
CCOC(=O)[C@]12CO[C@H](C(C)(C)C)N1C(=O)/C(=C(/CC13CC4CC(CC(C4)C1)C3)NCCCN1CCOCC1)C2=O,> 64,> 32,> 64,> 64,> 64,> 32,> 32,> 32,> 64,> 64,> 64,8,> 64,> 64,> 64
CCCCCCCCCCCCC/C(NCCCN)=C1\C(=O)CN(CCCCCC)C1=O,32,> 32,4,64,1,> 32,> 32,> 32,8,2,4,32,2,4,2
CCCCCCCCC/C(=C1\C(=O)CNC1=O)N1CCCCC1,16,> 32,16,64,8,> 32,> 32,> 32,16,16,16,> 64,> 64,16,16
C/C(NCCOc1ccccc1Cl)=C1/C(=O)CNC1=O,> 32,> 32,> 32,> 32,> 32,> 32,> 32,> 32,> 32,> 32,> 32,> 32,> 32,> 32,> 32
CCCCCCCCCCC/C(NCCCOC(C)C)=C1\C(=O)[C@@H]2CCCC(=O)N2C1=O,> 64,> 32,> 64,> 64,> 64,> 32,> 32,> 32,16,> 64,> 64,4,> 64,> 64,> 64
COCCOC(=O)[C@]12CO[C@H](C(C)(C)C)N1C(=O)/C(=C(\C)NCCOc1ccccc1)C2=O,> 32,> 32,> 32,> 32,> 32,> 32,> 32,> 32,> 32,> 32,> 32,> 32,> 32,> 32,> 32
CCN(CC)CCCC(C)N/C(CCCOc1ccccc1)=C1/C(=O)C(CC(C)C)N(C(=O)c2ccccc2)C1=O (stereo not given),> 32,> 32,> 32,> 32,> 32,> 32,> 32,> 32,> 32,> 32,> 32,> 32,> 32,> 32,> 32
CCOC(=O)[C@]12CO[C@H](C(C)(C)C)N1C(=O)/C(=C(\C)NCCOc1ccccc1)C2=O,2,> 32,> 64,> 64,8,> 32,> 32,> 32,1,64,64,32,2,64,64
